Non-standard residues stand in square brackets, D forms with d. Residues, ends and D or L forms follow the SMILES beside them. *: point of attachment. 1Nal = N[C@@H](Cc1cccc2ccccc12)C(=O)O; Boc = CC(C)(C)OC(=O)*
How the values were obtained:
[1] = biological target: Gastrin/cholecystokinin type B receptor (Cavia porcellus); assay: Tested for the inhibition of [3H]pCCK-8 binding to Cholecystokinin type B receptor in guinea pig brain
[2] = biological target: Gastrin/cholecystokinin type B receptor (Cavia porcellus); assay: as above; remark: listed apart in the source

Row | Ki [1] | Ki [2] | SMILES
1 | 150 pM | – | CCCC[C@@H](NC(=O)CC(=O)N[C@@H](Cc1c[nH]c2ccccc12)C(=O)N(C)[C@@H](CCCC)C(=O)N[C@@H](CC(=O)O)C(=O)N[C@@H](Cc1ccccc1)C(N)=O)NC(=O)[C@H](Cc1ccc(OS(=O)(=O)O)cc1)NC(=O)OC(C)(C)C [Boc-Tyr(SO3Na)-gNle-mGIy-Trp-(N-Me)Nle-Asp-Phe-NH2]
2 | – | 71000 pM | CC(C)(C)OC(=O)N[C@@H](Cc1c[nH]c2ccccc12)C(=O)N[C@@H](Cc1ccccc1)C(=O)N[C@@H](CC(=O)O)C(=O)N[C@@H](Cc1cccc2ccccc12)C(N)=O [Boc-Trp-Phe-Asp-1Nal-NH2] (Boc-WFD[1Nal]-NH2)
3 | – | 460 pM | CCCC[C@@H](NC(=O)CC(=O)N[C@@H](Cc1c[nH]c2ccccc12)C(=O)N(C)[C@@H](CCCC)C(=O)N[C@@H](CC(=O)O)C(=O)N[C@@H](Cc1ccccc1)C(N)=O)NC(=O)[C@H](Cc1ccc(CS(=O)(=O)O)cc1)NC(=O)OC(C)(C)C [Boc-Phe(CH2-SO3Na)-gNle-mCIy-Trp-(N-Me)Nle-Asp-Phe-NH2]
